Literature values, collected in patent US20120178771A1, “Oral Pharmaceutical Compositions of Buprenorphine and Method of Use” (priority 2008, published 2012).

Key:
[1] = orally administered, versus placebo; pain assessed 0.5 to 6 hours
[2] = human, in vivo

Compound	analgesia over the 6 hours, differences between the groups [1]	dose range required to control pain in about 90% of subjects [2]
CC(=O)Nc1ccc(O)cc1 [acetaminophen (paracetamol), acetaminophen]	no significant differences between the groups in analgesia	
CN1CC[C@]23c4c5ccc(O)c4O[C@H]2[C@@H](O)C=C[C@H]3[C@H]1C5 [morphine]		8 fold
COc1ccc2c3c1O[C@H]1C(=O)CC[C@@]4(O)[C@@H](C2)N(C)CC[C@]314 [oxycodone]		4 fold
